Test system: 349418-098-R tumor spheroid viability
Assay: Anticancer human tumor 349418-098-R patient-derived lung adenocarcinoma cell line growth inhibition
Details: spheroids with HUVEC and MSC; for viability, T/C: stronger effect = lower value
Method in brief: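 Single agents and combinations were tested on spheroids built from tumor cells plus HUVEC and hMSC, at half-log dilutions starting at or near clinical Cmax, else 10 microM; final DMSO 0.25% (v/v).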
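Further: spheroids exposed to compound for 7 days before measurement.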
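Wherever viability, T/C is given: percent of vehicle control viability with 100% = DMSO-treated spheroids.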

For `COc1cc(C)[nH]c(=O)c1CN1CCc2c(Cl)cc(C(OC)C3COC3)c(Cl)c2C1=O` (stereo not given) + Cn1nnc2c(C(N)=O)ncn2c1=O, which IC50 (curve of first compound, second compound 1 µM) is on record?
The IC50 was > 10 µM.

And the IC50 (curve of first compound, second compound 3.16 µM)?
Its IC50 is > 10 µM.

What about the IC50 (curve of first compound, second compound 10 µM) of the same molecule?
The IC50 was > 10 µM.

What about the IC50 (curve of first compound, second compound 31.6 µM) of the same molecule?
The IC50 was > 10 µM.

What about the IC50 (curve of first compound, second compound 100 µM) of the same molecule?
Its IC50 is > 10 µM.

And the viability, T/C (second compound 1 µM, first compound 0.0316 µM)?
The viability, T/C was 102%.

And the viability, T/C (second compound 1 µM, first compound 0.1 µM)?
The viability, T/C was 99.6%.

What about the viability, T/C (second compound 1 µM, first compound 0.316 µM) of the same molecule?
The viability, T/C was 92.1%.

What about the viability, T/C (second compound 1 µM, first compound 1 µM) of the same molecule?
The viability, T/C was 90.6%.

What about the viability, T/C (second compound 1 µM, first compound 3.16 µM) of the same molecule?
Its viability, T/C is 83.7%.

And the viability, T/C (second compound 1 µM, first compound 10 µM)?
Its viability, T/C is 79.4%.

What about the viability, T/C (second compound 3.16 µM, first compound 0.0316 µM) of the same molecule?
The viability, T/C was 103%.

What about the viability, T/C (second compound 3.16 µM, first compound 0.1 µM) of the same molecule?
Its viability, T/C is 98.5%.

And the viability, T/C (second compound 3.16 µM, first compound 0.316 µM)?
Its viability, T/C is 95.7%.

And the viability, T/C (second compound 3.16 µM, first compound 1 µM)?
The viability, T/C was 84.2%.

And the viability, T/C (second compound 3.16 µM, first compound 3.16 µM)?
Its viability, T/C is 84%.

What about the viability, T/C (second compound 3.16 µM, first compound 10 µM) of the same molecule?
Its viability, T/C is 83.6%.

And the viability, T/C (second compound 10 µM, first compound 0.0316 µM)?
The viability, T/C was 98.7%.

What about the viability, T/C (second compound 10 µM, first compound 0.1 µM) of the same molecule?
Its viability, T/C is 96.7%.

What about the viability, T/C (second compound 10 µM, first compound 0.316 µM) of the same molecule?
Its viability, T/C is 92.3%.

And the viability, T/C (second compound 10 µM, first compound 1 µM)?
Its viability, T/C is 95.1%.

What about the viability, T/C (second compound 10 µM, first compound 3.16 µM) of the same molecule?
The viability, T/C was 85%.

What about the viability, T/C (second compound 10 µM, first compound 10 µM) of the same molecule?
The viability, T/C was 81.9%.

What about the viability, T/C (second compound 31.6 µM, first compound 0.0316 µM) of the same molecule?
Its viability, T/C is 104%.

What about the viability, T/C (second compound 31.6 µM, first compound 0.1 µM) of the same molecule?
Its viability, T/C is 98.5%.

And the viability, T/C (second compound 31.6 µM, first compound 0.316 µM)?
The viability, T/C was 93.4%.

And the viability, T/C (second compound 31.6 µM, first compound 1 µM)?
The viability, T/C was 93.3%.

And the viability, T/C (second compound 31.6 µM, first compound 3.16 µM)?
The viability, T/C was 84.8%.

What about the viability, T/C (second compound 31.6 µM, first compound 10 µM) of the same molecule?
The viability, T/C was 78.4%.

What about the viability, T/C (second compound 100 µM, first compound 0.0316 µM) of the same molecule?
Its viability, T/C is 99%.

And the viability, T/C (second compound 100 µM, first compound 0.1 µM)?
Its viability, T/C is 98.7%.

What about the viability, T/C (second compound 100 µM, first compound 0.316 µM) of the same molecule?
The viability, T/C was 96.3%.

And the viability, T/C (second compound 100 µM, first compound 1 µM)?
Its viability, T/C is 87.4%.

And the viability, T/C (second compound 100 µM, first compound 3.16 µM)?
The viability, T/C was 87%.

What about the viability, T/C (second compound 100 µM, first compound 10 µM) of the same molecule?
Its viability, T/C is 81.8%.

`COc1cc2c(cc1O)CCNC21CSC2c3c(OC(C)=O)c(C)c4c(c3C(COC1=O)N1C(O)C3Cc5cc(C)c(OC)c(O)c5C(C21)N3C)OCO4` (stereo not given) was tested. Which viability, T/C (compound 94.9 pM) did it give?
Its viability, T/C is 90.5% [middle of 10 runs].

What about the viability, T/C (compound 0.0003 µM) of the same molecule?
Its viability, T/C is 88.1% [middle of 10 runs].

What about the viability, T/C (compound 0.000949 µM) of the same molecule?
The viability, T/C was 0.55% [middle of 10 runs].

What about the viability, T/C (compound 0.003 µM) of the same molecule?
The viability, T/C was 1.4% [middle of 9 runs].

What about the IC50 (compound alone, run of 10/25/2019) of the same molecule?
Its IC50 is 0.496 nM [middle of 9 runs].

With `COc1cc(C)[nH]c(=O)c1CN1CCc2c(Cl)cc(C(OC)C3COC3)c(Cl)c2C1=O` (stereo not given) + COc1cc2c(cc1O)CCNC21CSC2c3c(OC(C)=O)c(C)c4c(c3C(COC1=O)N1C(O)C3Cc5cc(C)c(OC)c(O)c5C(C21)N3C)OCO4 as the molecule, how does the IC50 (curve of first compound, second compound 30 pM) read?
The IC50 was > 10 µM.

What about the IC50 (curve of first compound, second compound 94.9 pM) of the same molecule?
Its IC50 is > 10 µM.

What about the IC50 (curve of first compound, second compound 0.0003 µM) of the same molecule?
The IC50 was > 10 µM.

What about the IC50 (curve of first compound, second compound 0.000949 µM) of the same molecule?
The IC50 was < 0.0316 µM.

And the IC50 (curve of first compound, second compound 0.003 µM)?
Its IC50 is < 0.0316 µM.

And the viability, T/C (second compound 30 pM, first compound 0.0316 µM)?
Its viability, T/C is 112%.

What about the viability, T/C (second compound 30 pM, first compound 0.1 µM) of the same molecule?
The viability, T/C was 106%.

And the viability, T/C (second compound 30 pM, first compound 0.316 µM)?
The viability, T/C was 96.1%.

What about the viability, T/C (second compound 30 pM, first compound 1 µM) of the same molecule?
Its viability, T/C is 97.2%.

And the viability, T/C (second compound 30 pM, first compound 3.16 µM)?
Its viability, T/C is 94.2%.

And the viability, T/C (second compound 30 pM, first compound 10 µM)?
The viability, T/C was 93.3%.

What about the viability, T/C (second compound 94.9 pM, first compound 0.0316 µM) of the same molecule?
The viability, T/C was 112%.

What about the viability, T/C (second compound 94.9 pM, first compound 0.1 µM) of the same molecule?
The viability, T/C was 111%.

And the viability, T/C (second compound 94.9 pM, first compound 0.316 µM)?
The viability, T/C was 102%.

And the viability, T/C (second compound 94.9 pM, first compound 1 µM)?
The viability, T/C was 99.2%.

What about the viability, T/C (second compound 94.9 pM, first compound 3.16 µM) of the same molecule?
The viability, T/C was 90.8%.

What about the viability, T/C (second compound 94.9 pM, first compound 10 µM) of the same molecule?
The viability, T/C was 95.8%.

What about the viability, T/C (second compound 0.0003 µM, first compound 0.0316 µM) of the same molecule?
Its viability, T/C is 95.4%.

What about the viability, T/C (second compound 0.0003 µM, first compound 0.1 µM) of the same molecule?
Its viability, T/C is 85.8%.

And the viability, T/C (second compound 0.0003 µM, first compound 0.316 µM)?
Its viability, T/C is 84.3%.

And the viability, T/C (second compound 0.0003 µM, first compound 1 µM)?
Its viability, T/C is 79.9%.

And the viability, T/C (second compound 0.0003 µM, first compound 3.16 µM)?
The viability, T/C was 64%.

And the viability, T/C (second compound 0.0003 µM, first compound 10 µM)?
The viability, T/C was 53.1%.

What about the viability, T/C (second compound 0.000949 µM, first compound 0.0316 µM) of the same molecule?
The viability, T/C was 0.28%.

What about the viability, T/C (second compound 0.000949 µM, first compound 0.1 µM) of the same molecule?
Its viability, T/C is 0.39%.

What about the viability, T/C (second compound 0.000949 µM, first compound 0.316 µM) of the same molecule?
The viability, T/C was 0.45%.

And the viability, T/C (second compound 0.000949 µM, first compound 1 µM)?
The viability, T/C was 0.46%.

And the viability, T/C (second compound 0.000949 µM, first compound 3.16 µM)?
The viability, T/C was 0.29%.

What about the viability, T/C (second compound 0.000949 µM, first compound 10 µM) of the same molecule?
Its viability, T/C is 0.33%.

And the viability, T/C (second compound 0.003 µM, first compound 0.0316 µM)?
Its viability, T/C is 1.45%.

And the viability, T/C (second compound 0.003 µM, first compound 0.1 µM)?
The viability, T/C was 1.46%.

And the viability, T/C (second compound 0.003 µM, first compound 0.316 µM)?
The viability, T/C was 1.03%.

What about the viability, T/C (second compound 0.003 µM, first compound 1 µM) of the same molecule?
Its viability, T/C is 1.48%.

What about the viability, T/C (second compound 0.003 µM, first compound 3.16 µM) of the same molecule?
Its viability, T/C is 1.6%.

What about the viability, T/C (second compound 0.003 µM, first compound 10 µM) of the same molecule?
Its viability, T/C is 2.3%.

Reference: PubChem BioAssay AID1845197 (Molecular Pharmacology Branch, DTP, NCI, 2023)
